Values of other authors in patent publication US20020193323A1, “Compositions and methods for promoting a healthy cardiovascular system and enhancing blood flow” (priority 2000, published 2002).

Tests used:
[1] = in vivo
glutathione system = details: selenium supplementation, through activation of the glutathione system

| SMILES | reduce risk of major coronary events [1] [%] | reduced lipid peroxidation levels (glutathione system) [%] |
| --- | --- | --- |
| CC1=C(/C=C/C(C)=C/C=C/C(C)=C/C=C/C=C(C)/C=C/C=C(C)/C=C/C2=C(C)CCCC2(C)C)C(C)(C)CCC1 [Beta-carotene] | 51 |  |
| [Se] [selenium] |  | 50 |
